The values below come from patent US9592243B2, “Medical devices and methods comprising an anabolic agent for treatment of an injury” (Warsaw Orthopedic, Inc., priority 2011, dated 2017).

In the experiment the test system is surgical injury (linear full-thickness incisions). The experiment can be described thus: Injury strength of full-thickness surgical incisions, vacuum failure pressure (BTC-2000). In kind it is in vivo, male hairless guinea pigs. From the text: In a recent proof-of-concept study, male hairless guinea pigs (n=30) receive bilateral incisions as previously described by Storch, Perry, Davidson, and Ward (Surg Infect (Larchmt) 2002; 3 Suppl 1:S89-98) This reference is herein incorporated by reference. Two linear full-thickness incisions exactly 2 cm long and separated by approximately 3 cm were made on the left and right dorsolateral regions of all animals. Incisions extend through the dermis and subcutaneous tissue and panniculus carnosus muscle. After the injuries were created, 200 μL of a […] aqueous suspension (1 mg of drug, ˜2.7 mg/kg) of generic stanozolol was applied directly into the injury bed in the right flank but not left flank of n=16 animals. The injury bed on the left side of these animals received 200 μL of saline vehicle control. In the remaining fourteen animals, incisions were not treated (nothing applied control). Only the incision in the right flank was assessed for injury strength in the nothing applied control animals. All injuries were then closed with interrupted nylon sutures. On days 2, 4, and 6 (in remaining animals), animals in the stanozolol group received 100 μL (0.5 mg, ˜1.4 mg/kg) of the same stanozolol suspension in the right injury and 100 μL of saline in the left injury, carefully injected with an insulin syringe introduced lateral to the injury and directed towards the injury bed. For each time point (days 5 and 7), injury strength was tested in 7 nothing applied control guinea pigs and 8 stanozolol guinea pigs after carefully removing dressing and sutures. Injury strength was measured by applying a vacuum to the injury and recording the pressure at which the injury fails. Biomechanical testing was performed under anesthesia using the […] (SRI Technologies, Nashville). A disposable acrylic test ring was placed around the injury and secured to the skin using acrylate glue. The BTC-2000™ test chamber (2.5 cm ID) was mated to the test ring. An escalating negative pressure was applied to the injury at a rate of 10 mm Hg/second, producing a multi-axial stress on the injury. […]

As for `C[C@]12Cc3c[nH]nc3C[C@@H]1CC[C@@H]1[C@@H]2CC[C@@]2(C)[C@H]1CC[C@]2(C)O` [stanozolol], the “Effect on contralateral (saline treated, left flank) injuries in stanozolol treated animals” value (local stanozolol in right injury only, days 5 and 7) is “No effect”. Further, the “Injury strength when exposed to pressure, compared to injuries with control or placebo (FIG. 1)” value (locally injected bolus dose of 1 mg initially, then 0.5 mg on days 2, 4, 6, tested on days 5 and seven) is “highest injury strength”. The “Injury strength (pressure at which the injury fails) compared to nothing applied control injuries” value (stanozolol aqueous suspension applied locally into right flank injury, 1 mg initially then 0.5 mg on days 2, 4, 6, tested on days 5 and 7) was “significantly stronger”.
